Results: paper PMC5371667, “Targeting Bile Acid Receptors: Discovery of a Potent and Selective Farnesoid X Receptor Agonist as a New Lead in the Pharmacological Approach to Liver Diseases” (Frontiers in Pharmacology, 2017)

Columns and labels:
human GPBAR1 = target: T1, human GPBAR1 (Homo sapiens, UniProt Q8TDU6); assay: GPBAR1 transactivation on HepG2 cells (CRE luciferase reporter); type: cell-based; conditions: 50 and 100 μM
T1 construct: expressed in transfected cells; host or cells: HepG2
T1 sequence (Q8TDU6 1-330): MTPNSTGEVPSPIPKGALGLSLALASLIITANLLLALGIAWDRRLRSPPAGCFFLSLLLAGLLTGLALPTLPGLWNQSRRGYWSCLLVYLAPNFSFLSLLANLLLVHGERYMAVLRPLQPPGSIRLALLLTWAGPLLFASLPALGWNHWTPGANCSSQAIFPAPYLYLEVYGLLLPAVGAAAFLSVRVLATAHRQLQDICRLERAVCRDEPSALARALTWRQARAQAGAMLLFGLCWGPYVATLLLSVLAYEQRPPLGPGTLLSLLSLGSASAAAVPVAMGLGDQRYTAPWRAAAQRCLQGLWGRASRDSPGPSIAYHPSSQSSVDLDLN
Protocol: For FXR mediated transactivation, HepG2 cells were plated at 5 × 10^4 cells/well in a 24 well plate. Cells were transfected with 200 ng of the reporter vector p(hsp27)-TK-LUC containing a FXR response element (IR1) cloned from the promoter of heat shock protein 27 (hsp27), 100 ng of pSG5-FXR, 100 ng of pSG5-RXR, and 100 ng of pGL4.70 (Promega), a vector encoding the human Renilla gene. For GPBAR1 mediated transactivation, HepG2 cells were plated at 5 × 10^4 cells/well in a 24 well-plate and transfected with 200 ng of pGL4.29 (Promega), a reporter vector containing a cAMP response element (CRE) that drives the transcription of the luciferase reporter gene luc2P, with 100 ng of pCMVSPORT6-human GPBAR1, and with 100 ng of pGL4.70 Renilla. […] TLCA (10 μM) was used as a positive control for GPBAR1 activity.

PPARα = target: T2, PPARα (Homo sapiens, UniProt Q07869); assay: PPARα transactivation on HepG2 cells (GAL4 LBD reporter); type: cell-based; conditions: 10 μM
T2 construct: expressed in transfected cells; host or cells: HepG2
T2 sequence (Q07869 239-466 limits assumed): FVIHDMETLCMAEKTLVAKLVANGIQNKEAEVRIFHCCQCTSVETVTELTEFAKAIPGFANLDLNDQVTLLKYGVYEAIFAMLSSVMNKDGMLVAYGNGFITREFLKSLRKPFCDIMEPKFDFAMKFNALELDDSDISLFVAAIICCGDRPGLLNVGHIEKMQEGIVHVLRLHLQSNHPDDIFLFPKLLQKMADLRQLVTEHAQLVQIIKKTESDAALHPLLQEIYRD
Protocol: (§1) To evaluate LXRα and LXRβ mediated transactivation, HepG2 cells were transfected with 200 ng of the reporter vector p(UAS)5XTKLuc, 100 ng of a vector containing the ligand binding domain of LXRα or LXRβ cloned upstream of the GAL4-DNA binding domain (i.e., pSG5-LXRαLBD-GAL4DBD or pSG5-LXRβLBD-GAL4DBD) and 100 of pGL4.70 Renilla. At 24 h post-transfection, cells were stimulated 18 h with 10 μM compound 2 and GW3965 (GW, 10 μM) was used as positive control. To investigate the PPARα and PPARγ mediated transactivation, HepG2 cells were transiently transfected with 200 ng reporter vector p(UAS)9XTKLuc, 100 ng of a vector containing the ligand binding domain of PPARα or PPARγ cloned upstream of the GAL4-DNA binding domain (i.e., pSG5- PPARαLBD-GAL4DBD or pSG5- PPARγLBD-GAL4DBD) and 100 of pGL4.70 Renilla. For PPARα transactivation, cells were stimulated with 10 μM compound 2 and gemfibrozil (GEM, 10 μM) was used as positive control. For PPARγ transactivation, cells were stimulated with 10 μM compound 2 and rosiglitazone (ROSI, 100 nM) was used as a positive control. Luciferase activities were assayed and normalized with Renilla activities.

PPARγ = target: T3, PPARγ (Homo sapiens, UniProt P37231); assay: PPARγ transactivation on HepG2 cells (GAL4 LBD reporter); type: cell-based; conditions: 10 μM
T3 construct: expressed in transfected cells; host or cells: HepG2
T3 sequence (P37231 238-503 limits assumed): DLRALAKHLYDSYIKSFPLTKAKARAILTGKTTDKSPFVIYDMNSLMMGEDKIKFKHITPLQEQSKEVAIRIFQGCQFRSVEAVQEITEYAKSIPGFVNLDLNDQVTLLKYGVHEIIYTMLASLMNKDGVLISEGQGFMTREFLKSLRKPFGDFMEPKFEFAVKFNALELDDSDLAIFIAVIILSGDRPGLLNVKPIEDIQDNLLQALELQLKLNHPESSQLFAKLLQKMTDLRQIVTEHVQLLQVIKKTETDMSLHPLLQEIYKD
Protocol: as §1

[1] = system: FXR target genes SHP, OSTα, BSEP in HepG2 cells; assay: RT-PCR of FXR target genes in HepG2 cells; type: cell-based, human; conditions: 1 μM, 18 h, versus 6-ECDCA 1 μM
Protocol: HepG2 cells were plated at 1 × 10^6 cells/well in a six well plate. After an overnight incubation, cells were starved and then stimulated for 18 h with compound 2 at 1 μM. Total RNA was isolated from HepG2 cells or liver tissues using the TRIzol reagent according to the manufacturer’s specifications (Invitrogen). One microgram of purified RNA was treated with DNase-I and reverse transcribed with Superscript II (Invitrogen). For Real Time PCR, 10 ng template was dissolved in 25 μL containing 200 nmol/L of each primer and 12.5 μL of 2× SYBR FAST Universal ready mix (Invitrogen). All reactions were performed in triplicate, and the thermal cycling conditions were as follows: 2 min at 95°C, followed by 40 cycles of 95°C for 20 s and 60°C for 30 s in StepOnePlus (Applied Biosystems). The relative mRNA expression was calculated accordingly to the Ct method. Primers were designed using the software PRIMER3^1 using published data obtained from the NCBI database. Forward and reverse primer sequences were the following: human GAPDH, […] and […]; human BSEP, […] and […]; human OSTα, […] and […]; human SHP, […] and […]; mouse NTCP, […] and […]; mouse CYP7A1, […] and […]; mouse FGF21, […] and […]; mouse GAPDH, […] and […]; mouse BSEP, […] and […]; mouse OSTα, […] and […]; mouse SHP, […] and […].

[2] = system: bile acid pool in plasma and gallbladder; assay: Bile acid pool in C57BL6 mice (LC-MS/MS)
Protocol: At the day of sacrifice livers, gallbladders, blood and feces were collected from mice for further analysis.
The stock solutions of the individual tauro-conjugated and un-conjugated BAs were prepared separately in methanol at a concentration of 1 mg/mL. All stock solutions were stored at –20°C. Calibration standards were prepared by combining appropriate volumes of each BA stock solution and methanol. […] Mice serum sample aliquots of 20 μL were mixed with 80 μL of CH3OH, shaken continuously, vortexed and, after centrifugation at 16000 g for 10 min, the clear supernatant was transferred to a new vial, snap frozen and lyophilized. The sample was then re-dissolved in 40% water/ 60% MeOH with 0.1% formic acid and ammonium acetate 5 mM. […] For gallbladder, 10 mg of lyophilized gallbladder were manually pestle using a mortar and dissolved in 1 mL CH3OH. After centrifugation at 16000 g for 10 min, 500 μL of supernatants were lyophilized and reconstituted in 100 μL of 40% water/60% MeOH with 0.1% formic acid and ammonium acetate 5 mM.
For LC-MS/MS analysis, chromatographic separation was carried out on the HPLC-MS system Q-TRAP 6500 LC-MS/MS System from AB Sciex equipped with Shimadzu LC-20A LC and AutoSampler system. The mixture was separated on a Synergi Fusion RP 4 m from Phenomenex (150 mm × 2.00 mm).
Tauro-conjugated and non-conjugated BAs were separated at a flow rate of 200 μL/min using a methanol–aqueous ammonium acetate (NH4OAc) gradient. Mobile phase A was water containing 5 mM ammonium acetate and 0.1% formic acid, mobile phase B was methanol, containing ammonium acetate at 5 mM and 0.1% formic acid. […] ESI was performed in negative ion mode and the ion source temperature was set at 280°C. The tune page parameters were automatically optimized injecting taurocholic acid at 1 μM as standard.

## CC[C@H]1[C@@H](O)[C@@H]2[C@H](CC[C@]3(C)[C@@H]([C@H](C)CCC(=O)O)CC[C@@H]23)[C@@]2(C)CC[C@H](N=[N+]=[N-])C[C@@H]12 [compound 2, 3β-azido-6α-ethyl-7α-hydroxy-5β-cholan-24-oic acid]
Human GPBAR1
  GPBAR1 transactivation: inactivity
PPARα
  PPARα transactivation: unable in inducing
PPARγ
  PPARγ transactivation: unable in inducing
[1]
  modulation of BSEP mRNA expression: more potent than 6-ECDCA
  modulation of OSTα mRNA expression: more potent than 6-ECDCA
  modulation of SHP mRNA expression: equipotent with 6-ECDCA
[2]; 50 mg/kg
  blood level of tHCA: significantly reduced
[2]; 50 mg/kg oral
  level of tauro-deoxycholic acid (tDCA): reduction
  plasmatic and gallbladder levels of tauro-cholic acid (tCA): significantly reduced
  plasmatic and gallbladder levels of tauro-muricholic acid (tMu): significantly reduced
